Laboratory results as given in patent US7638056B2, “Treatment of sewage sludge” (Rhodia Operations, priority 2003, dated 2009).
Where two headings read alike, the source gives them in different places.

Test system: E. coli
Conditions: for time/kill response over the first 6 hours contact time / contact time to total kill: FIG. 1; for contact time to total kill: sterile sludge, 22° C., about 10^8 cells per ml
Excerpt: The methodology adopted to evaluate biocide performance was by Quantitative Suspension Test (QST) using sterile anaerobic digester sludge as the QST medium, back-inoculated with E. coli cultures previously isolated from the sludge. In this way, a consistent chemical environment (sterile sludge) could be used in conjunction with a defined bacterial challenge. This enables the provision of consistency between tests.
The E. coli strains used in QST had been isolated from raw-sludge samples.
QST were performed as follows: • Sterile sludge (19 ml) was dispensed into sterile, screw-cap, plastics universal bottles of nominal 30 ml capacity. • To each sample was added 0.5 ml of a washed cell suspension of E. coli prepared from a 16-hour culture incubated at 44° C. in Tryptose Soy Broth, which had been centrifuged (14500 rpm for 10 min.) and re-suspended in sterile phosphate buffer (0.2M at pH 7.2). An inoculum of 0.5 ml was sufficient to provide a final cell concentration of about 10^8 per ml in 20 ml of QST medium. • Fresh stock solutions of the candidate treatment chemicals were prepared in sterile phosphate buffer (0.2M at pH 7.2) at concentrations such that when 0.5 ml was added to the QST medium (final volume 20 ml) the desired final concentration of biocide was achieved. • The QST medium was mixed thoroughly and held at 22° C. for the duration of the test. • At intervals during the test, the sludge was well mixed and samples (1.0 ml) were removed from the QST medium and inoculated into the first tube of a dilution series containing MacConkey broth supplemented with sodium thiosulphate (5.0 g/l), to inactivate any residual biocide carried into the dilution series.
The end point was scored as the highest dilution in the series to show a change in colour from purple to yellow and to have developed turbidity.
MacConkey Broth was selected as this medium contains the pH indicator Bromocresol Purple that changes from purple to yellow as the medium becomes acidic. This is a useful indirect indicator of microbial growth (organic acid production) where this cannot be scored by the development of turbidity in an initially clear medium. Because the sludge contains suspended solids the first 2 tubes of the dilution series instantaneously develop turbidity on the addition of the sludge. This precludes using turbidity alone as an indicator of microbial growth.

Compound	log reduction in numbers (500 mg/l active ingredient, after 48 hours, FIG. 3)	time/kill response over the first 6 hours contact time (250 mg/l)	contact time to total kill (250 mg/l)	time/kill response over the first 6 hours contact time (500 mg/l)	contact time to total kill (500 mg/l)	time/kill response over the first 6 hours contact time (1000 mg/l)	contact time to total kill (1000 mg/l)	anti-microbial performance (Phosphonium Salt compared with DBNPA) (equal active-ingredient concentration of 500 mg/l, FIG. 3)
N#CC(Br)(Br)C(N)=O [DBNPA, dibromo-nitrilo-propionamide, reference compound]	2.5 log							
tetrakis(hydroxymethyl) phosphonium sulphate [Phosphonium Salt]		fairly flat	≤ 48 h	fairly flat	≤ 48 h	more progressive	≤ 24 h	superior
